From paper PMC6368365, “Didehydro-Cortistatin A Inhibits HIV-1 by Specifically Binding to the Unstructured Basic Region of Tat” (mBio, 2019)

Test: MTT viability assay, 72 h
Assay type: cell-based
Details: human, HeLa-CD4-LTR-LacZ cells, mean ± SD, n = 2 to 3
Procedure: The assay was performed with MTT [3-(4,5-dimethyl-2-thiazolyl)-2,5-diphenyl-2H-tetrazolium bromide] as described in reference.

## CN(C)C1CC23CCC4(O2)C(=CCC2(C)C(c5ccc6ccncc6c5)=CCC24)C=C3C(O)C1O (stereo not shown) [dCA, didehydro-cortistatin A]
  CC50 at 72 h: 20 µM
